Like-named read-outs stand apart in the source and are kept apart here.
What was measured:
[1] = system: HCV replicon (pSGR-399LM) in Huh7 cells; test: Inhibitory activity in the HCV replicon system (Renilla luciferase); assay type: cell-based; details: Hepatitis C virus, Huh-7, pSGR-399LM replicon Huh7 cells, 72 hr
Protocol: The Inhibitory Activity of Compounds in the HCV Replicon System
HCV replicon cell-line: The Huh7 cells were transfected with pSGR-399LM replicon DNA and cultured in the DMEM containing 10% FBS and 0.5 mg/mL G418. The cells were split at 1:3 to 1:5 every 3-4 days. The transfected cells were seeded in 96-well plates and cultured at 37° C., 5% CO2 for 24 hr.
Treatment with samples: To the HCV replicon Huh7 cells-line were added different concentration of the samples (i.e. compound Ik, wherein k=1, 2, 3 . . . 42), the each concentration for duplicate, and set no sample control wells. The concentration started at 400 nM, with quarter dilution to form five different concentrations of samples, that is 400 nM, 100 nM, 25 nM, 6.25 nM and 1.56 nM. The samples were added separately, and continued to incubated for 72 hr.
Fluorescence detection: After 72 hr treatment with sample, the cells were lysed and added with Renilla luciferase substrate to detect luminescent signal. The relative luminescent unit (RLU) in the luminometer was read out and used to calculate the inhibition rate of HCV.

[2] = system: HCV (J399EM virus) in Huh7.5.1 cells; test: Inhibition of HCV replication in HCV infected human hepatocellular carcinoma cells (Huh7.5.1), HCV-EGFP fluorescence; assay type: cell-based; details: Hepatitis C virus, Huh-7.5.1, 72 h, read-out: HCV infected human hepatocellular carcinoma cells in vitro EC50(nM)
Protocol: In Vitro Inhibitory Activity of Compounds in HCV Replication in HCV Infected Human Hepatocellular Carcinoma Cells (Huh7.5.1)
The preparation of Huh7.5.1cells: Huh 7.5.1 cells were seeded at a 96-well plate with 37 and 5% CO2 for 24 hours incubation.
Virus infection: Using the J399EM virus supernatants (moi≈0.1) to infect Huh7.5.1cells. At the same time, the no virus infected cell will be set up as the control. After 8 hours virus infection, the virus will be washed out with PBS.
Drug treatment: The different doses of samples (i.e. the compound Ik, wherein k=1, 2, 3, . . . 42) were added in J399EM infected Huh7.5.1 cells, the each dose for duplicate. At the same time the no sample added in wells will be set up as the control. The test dose of sample is starting from 25 nM or 400 nM, with quarter dilution, 5 doses of sample will be added in the test wells, respectively, then continued for 72 hours incubation.
HCV-EGFP fluorescence detection: After samples treatment for 72 hours, the autofluorescence of HCV-EGFP were measured by the luminometer with excitation of 488 nm, and emission of 516 nm. The related fluorescence unit (RFU) of samples will be read out and used for calculating the inhibitory rates of compounds in HCV replication.

[3] = Pharmacokinetic evaluation in SD rats after oral administration; assay type: in vivo, Sprague-Dawley (SD) rats; details: oral gavage, 10 mg/kg; for bioavailability: read-out: F (absolute bioavailability)
Protocol: Pharmacokinetic Evaluation of the Compounds of this Invention
Twenty healthy male Sprague-Dawley (SD) rats with body weight of 200-220 g were divided into 5 groups randomly and each group contains 4 rats. Before the experiment, rats were fasted for 12 h with free access to water. The compound Ik (wherein k=2, 5, 18, 34 or 38) of this invention was administered by oral gavage at a dose level of 10 mg/kg. The compounds were prepared with 0.5% CMC-Na containing 1% Tween 80. The dose volume was 10 mL/kg. The rats were afforded unlimited access to food after 2 h of dosing 0.3 mL of blood samples were collected at 0.25 h, 0.5 h, 1.0 h, 2.0 h, 3.0 h, 5.0 h, 7.0 h, 9.0 h, and 24.0 h, respectively, from postocular venous plexes of the rat. The blood samples were placed in heparin-containing tubes and immediately centrifuged at 11000 rpm for 5 min. Plasma was separated and refrigerated at −20° C. until analysis. LC-MS/MS methods were used to quantify plasma concentrations of the compound Ik.

[4] = male, Sprague-Dawley, rat, plasma
[5] = male, Sprague-Dawley, rat, plasma, po, read-out: Cmax
[6] = male, Sprague-Dawley, rat, plasma, po

| SMILES | EC50 [1] | EC50 [2] | AUC(0-inf) [3, 4] | AUC(0-t) [3, 4] | Tmax [3, 4] | half-life [3, 4] | Cmax [3, 5] | bioavailability [3, 6] | Cmax ([3]; listed as I18, 10 mg/kg) |
| --- | --- | --- | --- | --- | --- | --- | --- | --- | --- |
| COc1ccc2oc3c4ccccc4c(O[C@@H]4C[C@H]5C(=O)N[C@]6(C(=O)NS(=O)(=O)C7CC7)C[C@H]6/C=C\CCCCC[C@H](NC(=O)OC(C)(C)C)C(=O)N5C4)nc3c2c1 [Compound 2, tert-butyl(2R,6S,13aS,14aR,16aS,Z)-14a-(cyclopropylsulfonylcarbamoyl)-2-(8-methoxybenzofuro[3,2-c]isoquinolin-5-yloxy)-5,16-dioxo-1,2,3,5,6,7,8,9,10,11,13a,14,14a,15,16,16a-hexadecahydrocyclopropa[e]pyrrolo[1,2-a][1,4]diazacyclopentadecin-6-yl carbamate] | < 100 nM | < 100 nM | 1780 ± 53.7 ng·h/mL | 158 ± 49.8 ng·h/mL | 24 ± 6 min | 186 ± 78 min | 49.7 ± 11 ng/mL | 1.8% |  |
| CC(C)(C)OC(=O)N[C@H]1CCCCC/C=C\[C@@H]2C[C@@]2(C(=O)NS(=O)(=O)C2CC2)NC(=O)[C@@H]2C[C@@H](Oc3nc4c5cc(Cl)ccc5oc4c4ccccc34)CN2C1=O [Compound 5] | < 100 nM | < 100 nM | 3030 ± 1700 ng·h/mL | 2880 ± 1720 ng·h/mL | 75 ± 30 min | 209 ± 65.4 min | 560 ± 139 ng/mL | 17.1% |  |
| COc1ccc2c(c1)c(O[C@@H]1C[C@H]3C(=O)N[C@]4(C(=O)NS(=O)(=O)C5CC5)C[C@H]4/C=C\CCCCC[C@H](NC(=O)OC(C)(C)C)C(=O)N3C1)nc1c3ccccc3oc21 [Compound 18] | < 100 nM | < 100 nM | 3270 ± 303 ng·h/mL | 3220 ± 336 ng·h/mL | 102 ± 36 min | 228 ± 60 min | 623 ± 60.7 ng/mL | ~36.1% | 623.3 ± 60.7 ng/mL |
| C=C[C@@H]1C[C@]1(NC(=O)[C@@H]1C[C@@H](Oc2cc(-c3ccccc3)nc3c2oc2ccc(OC)c(Br)c23)CN1C(=O)[C@@H](NC(=O)OC1CCCC1)C(C)(C)C)C(=O)NS(=O)(=O)C1CC1 [Compound 28] | < 100 nM | < 100 nM |  |  |  |  |  |  |  |
| C=C[C@@H]1C[C@]1(NC(=O)[C@@H]1C[C@@H](Oc2nc3c4ccccc4oc3c3ccc(Cl)cc23)CN1C(=O)[C@@H](NC(=O)OC(C)(C)C)C(C)(C)C)C(=O)NS(=O)(=O)C1CC1 [Compound 29] | < 100 nM | < 100 nM |  |  |  |  |  |  |  |
| C=C[C@@H]1C[C@]1(NC(=O)[C@@H]1C[C@@H](Oc2nc3c4ccccc4oc3c3ccc(Br)cc23)CN1C(=O)[C@@H](NC(=O)OC(C)(C)C)C(C)(C)C)C(=O)NS(=O)(=O)C1CC1 [Compound 30] | 100 to 1000 nM | 100 to 1000 nM |  |  |  |  |  |  |  |
| C=C[C@@H]1C[C@]1(NC(=O)[C@@H]1C[C@@H](Oc2nc3c4ccccc4oc3c3ccc(OC)cc23)CN1C(=O)[C@@H](NC(=O)OC(C)(C)C)C(C)(C)C)C(=O)NS(=O)(=O)C1CC1 [Compound 31] | 100 to 1000 nM | 100 to 1000 nM |  |  |  |  |  |  |  |
| C=C[C@@H]1C[C@]1(NC(=O)[C@@H]1C[C@@H](Oc2nc3c4cc(OC)ccc4oc3c3ccc(Cl)cc23)CN1C(=O)[C@@H](NC(=O)OC(C)(C)C)C(C)(C)C)C(=O)NS(=O)(=O)C1CC1 [Compound 32] | < 100 nM | 100 to 1000 nM |  |  |  |  |  |  |  |
| C=C[C@@H]1C[C@]1(NC(=O)[C@@H]1C[C@@H](Oc2nc3c4cc(Cl)ccc4oc3c3ccc(Cl)cc23)CN1C(=O)[C@@H](NC(=O)OC(C)(C)C)C(C)(C)C)C(=O)NS(=O)(=O)C1CC1 [Compound 33] | 100 to 1000 nM | 100 to 1000 nM |  |  |  |  |  |  |  |
| C=C[C@@H]1C[C@]1(NC(=O)[C@@H]1C[C@@H](Oc2cc(-c3csc(NC(=O)C(C)C)n3)nc3c2oc2ccc(OC)c(Cl)c23)CN1C(=O)[C@@H](NC(=O)OC(C)(C)C)C(C)(C)C)C(=O)NS(=O)(=O)C1CC1 [Compound 34] | < 100 nM | < 100 nM | 11 ± 1.1 ng·h/mL | 9.6 ± 0.9 ng·h/mL | 24 ± 12 min | 30 ± 18 min | 11.4 ± 4.3 ng/mL | 1.6% |  |
| C=C[C@@H]1C[C@]1(NC(=O)[C@@H]1C[C@@H](Oc2cc(-c3csc(NC(=O)C(C)C)n3)nc3c2oc2ccc(OC)c(Br)c23)CN1C(=O)[C@@H](NC(=O)OC(C)(C)C)C(C)(C)C)C(=O)NS(=O)(=O)C1CC1 [Compound 35] | < 100 nM | < 100 nM |  |  |  |  |  |  |  |
| O=C1N[C@]2(C(=O)NS(=O)(=O)C3CC3)C[C@H]2/C=C\CCCCC[C@H](CC(=O)N2CCCCC2)C(=O)N2C[C@H](Oc3cc(-c4ccccc4)nc4c3oc3ccccc34)C[C@@H]12 [Compound 36] | < 100 nM | 100 to 1000 nM |  |  |  |  |  |  |  |
| C=C[C@@H]1C[C@]1(NC(=O)[C@@H]1C[C@@H](Oc2cc(-c3ccccc3)nc3c2oc2ccccc23)CN1C(=O)[C@@H](CC(=O)N1CCCCC1)C(C)(C)C)C(=O)NS(=O)(=O)C1CC1 [Compound 37] | 100 to 1000 nM | 100 to 1000 nM |  |  |  |  |  |  |  |
| C=C[C@@H]1C[C@]1(NC(=O)[C@@H]1C[C@@H](Oc2cc(-c3ccccc3)nc3c2oc2ccccc23)CN1C(=O)[C@@H](NC(=O)OC(C)(C)C)C(C)(C)C)C(=O)NS(=O)(=O)C1CC1 [Compound 38] | < 100 nM | < 100 nM | 243 ± 81 ng·h/mL | 239 ± 81 ng·h/mL | 37.8 ± 15 min | 43.2 ± 18 min | 150 ± 42 ng/mL | 8.7% |  |
| C=C[C@@H]1C[C@]1(NC(=O)[C@@H]1C[C@@H](Oc2cc(-c3cnc(C(C)(C)O)s3)nc3c2oc2ccc(OC)c(Cl)c23)CN1C(=O)[C@@H](NC(=O)OC(C)(C)C)C(C)(C)C)C(=O)NS(=O)(=O)C1CC1 [Compound 39] | < 100 nM | < 100 nM |  |  |  |  |  |  |  |
| C=C[C@@H]1C[C@]1(NC(=O)[C@@H]1C[C@@H](Oc2cc(-c3cnc(C(C)(C)O)s3)nc3c2oc2ccc(OC)c(Br)c23)CN1C(=O)[C@@H](NC(=O)OC(C)(C)C)C(C)(C)C)C(=O)NS(=O)(=O)C1CC1 [Compound 40] | < 100 nM | < 100 nM |  |  |  |  |  |  |  |

From patent publication US8969373B2, “HCV protease inhibitors” (Shanghai Tangrun Pharmaceuticals Co., Ltd., priority 2011, dated 2015)
